Experimental data taken from ChEMBL document CHEMBL1201862, “PubChem BioAssay data set” (2004).
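How tested: cells in 96-well plates exposed to compound for 48 hours at five concentrations. GI50 is the concentration that inhibits growth by half.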 Activity calls are given as the source filed them. Rule as the data show it: active = GI50 up to about 1.1 µM and inactive = higher.

Key:
Test in all cases: NCI tumour cell line growth inhibition, 48 h
[1] = tested on: OVCAR-5
[2] = tested on: NCI-H226
[3] = tested on: HCT-15
[4] = tested on: SNB-75
[5] = tested on: EKVX
[6] = tested on: UACC-257
[7] = tested on: SN12C
[8] = tested on: PC-3
[9] = tested on: NCI-H23
[10] = tested on: OVCAR-3
[11] = tested on: OVCAR-4
[12] = tested on: SNB-19
[13] = tested on: SF-268
[14] = tested on: MDA-N
[15] = tested on: SF-539
[16] = tested on: CAKI-1
[17] = tested on: HOP-62
[18] = tested on: MDA-MB-435
[19] = tested on: HCC 2998
[20] = tested on: ACHN

Row | SMILES | GI50 [1] | GI50 [2] | GI50 [3] [µM] | GI50 [4] | GI50 [5] | GI50 [6] | GI50 [7] | GI50 [8] | GI50 [9] | GI50 [10] | GI50 [11] | GI50 [12] | GI50 [13] | GI50 [14] | GI50 [15] | GI50 [16] | GI50 [17] | GI50 [18] | GI50 [19] | GI50 [20]
1 | COc1ccc2c(c1)c(=O)c1c(NCCNCCO)ccc3c(=O)n(CCN(C)C)c(=O)n2c31 | 0.227 µM (active) | 0.148 µM (active) | 0.23 | 0.0933 µM (active) | 0.0889 µM (active) | 0.261 µM (active) | < 0.0198 µM (active) | 0.0836 µM (active) | 0.0637 µM (active) | 0.331 µM (active) | 0.0895 µM (active) | 0.07 µM (active) | 0.103 µM (active) | 0.112 µM (active) | < 0.0265 µM (active) | 0.0537 µM (active) | 0.109 µM (active) | 0.103 µM (active) | < 0.0337 µM (active) | 0.027 µM (active)
2 | CC[N+]1(C)CCC(O)(/C=C/c2ccc(OC)cc2)C(C(=O)/C=C/c2ccc(OC)cc2)C1 (stereo not given) | 21.2 µM (inactive) | 28 µM (inactive) | 9.98 | 18.9 µM (inactive) | 28.6 µM (inactive) | 17.4 µM (inactive) | 21.3 µM (inactive) | 20.1 µM (inactive) | 16.2 µM (inactive) | 19.7 µM (inactive) | 24.7 µM (inactive) | 17.3 µM (inactive) | 10.6 µM (inactive) | 12.3 µM (inactive) | 5.35 µM (inactive) | 1.88 µM (inactive) | 19.3 µM (inactive) | 12.5 µM (inactive) | 20 µM (inactive) | 8.36 µM (inactive)
3 | Oc1cccc2cc(Br)cnc12 | 17.7 µM (inactive) | 27.5 µM (inactive) | 4.43 | 18 µM (inactive) | 5.14 µM (inactive) | 4.78 µM (inactive) | 14.9 µM (inactive) | 6.68 µM (inactive) | 5.92 µM (inactive) | 2.67 µM (inactive) | 2.86 µM (inactive) | > 39.4 µM (inactive) | 2.33 µM (inactive) | 21.7 µM (inactive) | 10 µM (inactive) | 24.5 µM (inactive) | 16.2 µM (inactive) | 14.1 µM (inactive) | 27.9 µM (inactive) | 6.03 µM (inactive)
4 | COc1cc2c(cc1OC)C1c3ccccc3CCN1CC2 (stereo not given) | > 100 µM (inactive) | 41.2 µM (inactive) | > 100 | 44.6 µM (inactive) | > 100 µM (inactive) | > 100 µM (inactive) | 62.5 µM (inactive) | > 100 µM (inactive) | 63.5 µM (inactive) | > 100 µM (inactive) | > 100 µM (inactive) | > 100 µM (inactive) | > 100 µM (inactive) | 41.1 µM (inactive) | 31.1 µM (inactive) | > 100 µM (inactive) | 70.8 µM (inactive) | 37.2 µM (inactive) | 43.6 µM (inactive) | > 100 µM (inactive)
5 | O=C1OC(c2ccco2)=N/C1=C\c1cccc([N+](=O)[O-])c1 | > 100 µM (inactive) | > 100 µM (inactive) | > 100 | > 100 µM (inactive) | > 100 µM (inactive) | > 100 µM (inactive) | > 100 µM (inactive) | > 100 µM (inactive) | > 100 µM (inactive) | > 100 µM (inactive) | > 100 µM (inactive) | > 100 µM (inactive) | > 100 µM (inactive) | > 100 µM (inactive) | > 100 µM (inactive) | > 100 µM (inactive) | > 100 µM (inactive) | > 100 µM (inactive) | > 100 µM (inactive) | > 100 µM (inactive)
6 | COc1ccc(N(C(=O)NCCO)c2ccccc2)cc1 | > 100 µM (inactive) | > 100 µM (inactive) | > 100 | > 100 µM (inactive) | > 100 µM (inactive) | > 100 µM (inactive) | > 100 µM (inactive) | > 100 µM (inactive) | > 100 µM (inactive) | > 100 µM (inactive) | > 100 µM (inactive) | > 100 µM (inactive) | > 100 µM (inactive) | > 100 µM (inactive) | > 100 µM (inactive) | > 100 µM (inactive) | > 100 µM (inactive) | > 100 µM (inactive) | > 100 µM (inactive) | > 100 µM (inactive)
7 | COc1cc2c3c(c1O)C1(C=CC(=O)C=C1)CC3N(C)CC2 (stereo not given) [GLAZIOVINE] | 19.3 µM (inactive) | 22 µM (inactive) | 5.96 | 4.57 µM (inactive) | 8.41 µM (inactive) | 13.4 µM (inactive) | 9.18 µM (inactive) | 14.3 µM (inactive) | 11.2 µM (inactive) | 5.37 µM (inactive) | 5.97 µM (inactive) | 14.3 µM (inactive) | 11 µM (inactive) | 10.7 µM (inactive) | 10.1 µM (inactive) | 7.29 µM (inactive) | 13.1 µM (inactive) | 11 µM (inactive) | 12.4 µM (inactive) | 14.5 µM (inactive)
8 | O=c1c2cc(-c3ccccc3)cnc2sn1-c1ccc([N+](=O)[O-])cc1 | > 100 µM (inactive) | 44.5 µM (inactive) | 55.2 | 25.1 µM (inactive) | 53 µM (inactive) | > 100 µM (inactive) | 60 µM (inactive) | 33.7 µM (inactive) | 15.1 µM (inactive) | 16.9 µM (inactive) | 39 µM (inactive) | 25.4 µM (inactive) | 48.2 µM (inactive) | 60.4 µM (inactive) | 42.7 µM (inactive) | 39.6 µM (inactive) | 26.5 µM (inactive) | 42.3 µM (inactive) | > 100 µM (inactive) | 24.9 µM (inactive)
9 | Cn1c(=O)c2c(no[n+]2[O-])c2ccccc21 | > 10 µM (inactive) | 16.9 µM (inactive) | 11.1 | 18.6 µM (inactive) | 18.3 µM (inactive) | 15.3 µM (inactive) | 22.8 µM (inactive) | 24.9 µM (inactive) | 15 µM (inactive) | 22.1 µM (inactive) | 18.4 µM (inactive) | 26.4 µM (inactive) | 20.5 µM (inactive) | 26.4 µM (inactive) | 25.8 µM (inactive) | 18.2 µM (inactive) | 17.3 µM (inactive) | 24.8 µM (inactive) | 12.9 µM (inactive) | 26.5 µM (inactive)
10 | COc1ccc2c3c(c(=O)n(C)c2c1OC)C=CC(C)(C)O3 | 82 µM (inactive) | 22.2 µM (inactive) | 13.4 | 2.78 µM (inactive) | 23.9 µM (inactive) | 35.3 µM (inactive) | 12.7 µM (inactive) | 33.7 µM (inactive) | 22.8 µM (inactive) | 48 µM (inactive) | 19.1 µM (inactive) | 20.7 µM (inactive) | 26.8 µM (inactive) | 21.7 µM (inactive) | 39.2 µM (inactive) | 13.5 µM (inactive) | 80.2 µM (inactive) | 38.3 µM (inactive) | 29.5 µM (inactive) | 13.7 µM (inactive)
